Results reported in BindingDB's records for doi:10.1023/a:1006986824213 (1999).
Counter-ions that a name gives are not always drawn.

Legend:
[1] = target: T1, 5-hydroxytryptamine receptor 2C (Rattus norvegicus, UniProt P08909)
T1 sequence (P08909 whole entry): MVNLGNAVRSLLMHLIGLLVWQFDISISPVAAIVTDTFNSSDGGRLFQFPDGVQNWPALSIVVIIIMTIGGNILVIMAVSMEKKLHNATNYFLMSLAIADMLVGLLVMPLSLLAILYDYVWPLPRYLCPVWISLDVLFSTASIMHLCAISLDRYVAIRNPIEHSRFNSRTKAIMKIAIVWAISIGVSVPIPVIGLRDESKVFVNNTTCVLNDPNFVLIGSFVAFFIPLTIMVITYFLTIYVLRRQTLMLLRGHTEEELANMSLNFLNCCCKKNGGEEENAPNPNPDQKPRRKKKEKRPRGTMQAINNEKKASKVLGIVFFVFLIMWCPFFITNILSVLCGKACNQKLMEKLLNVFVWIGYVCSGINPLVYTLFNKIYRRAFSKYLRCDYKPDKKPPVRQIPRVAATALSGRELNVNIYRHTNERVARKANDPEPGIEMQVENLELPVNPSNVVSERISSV

[2] = target: T2, Alpha-1A adrenergic receptor (Rattus norvegicus, UniProt P43140)
T2 sequence (P43140 whole entry): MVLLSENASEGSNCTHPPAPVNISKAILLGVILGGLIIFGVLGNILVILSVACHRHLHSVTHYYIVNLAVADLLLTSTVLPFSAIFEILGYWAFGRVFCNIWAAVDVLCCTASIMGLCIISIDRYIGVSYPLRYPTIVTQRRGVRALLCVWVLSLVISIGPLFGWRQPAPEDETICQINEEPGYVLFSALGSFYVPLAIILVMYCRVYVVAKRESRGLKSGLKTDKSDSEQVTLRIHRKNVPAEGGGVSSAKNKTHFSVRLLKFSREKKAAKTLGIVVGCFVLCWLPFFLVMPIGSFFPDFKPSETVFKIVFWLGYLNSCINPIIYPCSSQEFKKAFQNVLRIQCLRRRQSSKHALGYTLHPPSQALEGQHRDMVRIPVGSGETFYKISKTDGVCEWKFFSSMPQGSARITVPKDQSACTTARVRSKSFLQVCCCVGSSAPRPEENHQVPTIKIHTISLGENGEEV

[3] = target: Sodium-dependent dopamine transporter (Rattus norvegicus, UniProt P23977)
Sodium-dependent dopamine transporter, sequence (P23977 whole entry): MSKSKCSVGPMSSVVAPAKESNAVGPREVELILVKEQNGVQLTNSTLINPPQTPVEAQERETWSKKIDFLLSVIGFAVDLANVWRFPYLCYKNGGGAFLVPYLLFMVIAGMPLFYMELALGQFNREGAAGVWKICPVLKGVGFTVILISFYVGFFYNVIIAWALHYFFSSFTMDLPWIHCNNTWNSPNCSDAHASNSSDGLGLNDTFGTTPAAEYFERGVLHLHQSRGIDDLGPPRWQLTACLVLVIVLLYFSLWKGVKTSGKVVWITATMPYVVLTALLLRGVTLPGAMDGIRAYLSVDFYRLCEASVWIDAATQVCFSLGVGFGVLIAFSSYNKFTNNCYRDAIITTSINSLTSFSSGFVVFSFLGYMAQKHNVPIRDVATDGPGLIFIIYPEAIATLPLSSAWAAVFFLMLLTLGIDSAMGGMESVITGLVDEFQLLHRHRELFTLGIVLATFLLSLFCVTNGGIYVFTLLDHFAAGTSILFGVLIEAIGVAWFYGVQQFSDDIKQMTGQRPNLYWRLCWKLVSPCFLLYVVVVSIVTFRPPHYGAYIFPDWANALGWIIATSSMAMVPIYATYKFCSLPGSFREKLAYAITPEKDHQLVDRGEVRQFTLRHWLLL

Histamine H1 receptor = Histamine H1 receptor (Rattus norvegicus, UniProt P31390)
Histamine H1 receptor, sequence (P31390 whole entry): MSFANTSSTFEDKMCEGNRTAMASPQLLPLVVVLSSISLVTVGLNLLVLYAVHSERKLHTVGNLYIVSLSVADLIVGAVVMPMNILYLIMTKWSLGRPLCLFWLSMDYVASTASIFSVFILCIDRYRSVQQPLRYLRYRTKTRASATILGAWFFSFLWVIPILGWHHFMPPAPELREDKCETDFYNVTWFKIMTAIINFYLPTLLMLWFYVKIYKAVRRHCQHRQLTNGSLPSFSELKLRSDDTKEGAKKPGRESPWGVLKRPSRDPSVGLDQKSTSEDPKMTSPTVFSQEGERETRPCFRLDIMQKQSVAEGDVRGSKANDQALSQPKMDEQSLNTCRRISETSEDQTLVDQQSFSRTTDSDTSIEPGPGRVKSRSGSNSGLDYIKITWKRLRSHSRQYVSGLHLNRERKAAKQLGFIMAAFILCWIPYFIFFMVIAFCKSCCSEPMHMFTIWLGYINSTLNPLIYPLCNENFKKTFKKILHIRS

[4] = target: T3, Alpha-2C adrenergic receptor (Rattus norvegicus, UniProt P22086)
T3 sequence (P22086 whole entry): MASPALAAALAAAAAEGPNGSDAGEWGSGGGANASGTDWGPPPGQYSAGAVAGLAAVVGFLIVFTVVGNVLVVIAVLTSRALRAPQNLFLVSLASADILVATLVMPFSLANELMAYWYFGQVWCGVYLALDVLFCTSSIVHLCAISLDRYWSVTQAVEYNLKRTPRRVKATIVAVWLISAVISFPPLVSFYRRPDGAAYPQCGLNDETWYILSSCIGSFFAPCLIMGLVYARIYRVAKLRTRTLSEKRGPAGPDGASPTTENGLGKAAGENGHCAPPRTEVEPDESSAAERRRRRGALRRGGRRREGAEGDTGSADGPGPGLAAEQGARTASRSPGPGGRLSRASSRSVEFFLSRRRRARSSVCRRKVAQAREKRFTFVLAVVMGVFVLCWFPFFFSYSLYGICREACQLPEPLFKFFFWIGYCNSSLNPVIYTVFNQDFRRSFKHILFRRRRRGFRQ

D(1A) dopamine receptor = D(1A) dopamine receptor (Rattus norvegicus, UniProt P18901)
D(1A) dopamine receptor, sequence (P18901 whole entry): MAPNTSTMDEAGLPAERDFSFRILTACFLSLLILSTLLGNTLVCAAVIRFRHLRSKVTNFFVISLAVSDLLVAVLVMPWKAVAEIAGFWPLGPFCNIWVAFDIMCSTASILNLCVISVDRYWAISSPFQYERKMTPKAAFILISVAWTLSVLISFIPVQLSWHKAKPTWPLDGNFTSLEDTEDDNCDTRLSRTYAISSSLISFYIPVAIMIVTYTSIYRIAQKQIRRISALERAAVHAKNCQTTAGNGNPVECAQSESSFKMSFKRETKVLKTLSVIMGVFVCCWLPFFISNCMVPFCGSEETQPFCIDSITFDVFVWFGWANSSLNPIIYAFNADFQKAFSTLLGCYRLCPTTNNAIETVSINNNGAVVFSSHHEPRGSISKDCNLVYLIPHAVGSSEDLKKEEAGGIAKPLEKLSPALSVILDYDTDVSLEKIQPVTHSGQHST

[5] = target: Norepinephrine transporter (Rattus norvegicus, UniProt Q9JIA2)
[6] = target: T4, Muscarinic acetylcholine receptor M2 (Rattus norvegicus, UniProt P10980)
T4 sequence (P10980 whole entry): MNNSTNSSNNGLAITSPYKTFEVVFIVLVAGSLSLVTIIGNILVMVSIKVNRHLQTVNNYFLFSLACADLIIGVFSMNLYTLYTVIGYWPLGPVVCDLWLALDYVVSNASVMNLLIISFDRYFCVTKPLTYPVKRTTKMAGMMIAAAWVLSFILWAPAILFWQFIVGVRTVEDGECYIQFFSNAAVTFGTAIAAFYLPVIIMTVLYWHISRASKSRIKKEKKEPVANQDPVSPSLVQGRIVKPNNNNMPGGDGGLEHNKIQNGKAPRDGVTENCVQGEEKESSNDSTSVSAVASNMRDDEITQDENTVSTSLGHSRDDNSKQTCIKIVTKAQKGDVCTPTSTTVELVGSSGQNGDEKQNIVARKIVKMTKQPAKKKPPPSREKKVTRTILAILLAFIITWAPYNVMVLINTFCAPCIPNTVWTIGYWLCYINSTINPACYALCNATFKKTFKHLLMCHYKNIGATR

[7] = target: 5-hydroxytryptamine receptor 2A (Rattus norvegicus, UniProt P14842)
5-hydroxytryptamine receptor 2A, sequence (P14842 whole entry): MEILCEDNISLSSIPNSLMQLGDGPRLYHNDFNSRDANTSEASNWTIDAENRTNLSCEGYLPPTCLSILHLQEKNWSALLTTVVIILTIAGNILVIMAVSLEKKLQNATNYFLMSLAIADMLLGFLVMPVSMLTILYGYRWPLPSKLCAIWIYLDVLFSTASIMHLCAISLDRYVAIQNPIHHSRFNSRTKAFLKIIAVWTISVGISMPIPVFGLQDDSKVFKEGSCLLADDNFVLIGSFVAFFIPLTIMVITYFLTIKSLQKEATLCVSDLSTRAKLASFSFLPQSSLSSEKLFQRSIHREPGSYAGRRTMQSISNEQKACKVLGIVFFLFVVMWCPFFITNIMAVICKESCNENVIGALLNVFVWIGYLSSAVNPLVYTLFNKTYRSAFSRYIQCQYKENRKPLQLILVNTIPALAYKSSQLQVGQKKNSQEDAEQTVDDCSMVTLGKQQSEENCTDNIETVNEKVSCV

D(2) dopamine receptor = D(2) dopamine receptor (Rattus norvegicus, UniProt P61169)
D(2) dopamine receptor, sequence (P61169 whole entry): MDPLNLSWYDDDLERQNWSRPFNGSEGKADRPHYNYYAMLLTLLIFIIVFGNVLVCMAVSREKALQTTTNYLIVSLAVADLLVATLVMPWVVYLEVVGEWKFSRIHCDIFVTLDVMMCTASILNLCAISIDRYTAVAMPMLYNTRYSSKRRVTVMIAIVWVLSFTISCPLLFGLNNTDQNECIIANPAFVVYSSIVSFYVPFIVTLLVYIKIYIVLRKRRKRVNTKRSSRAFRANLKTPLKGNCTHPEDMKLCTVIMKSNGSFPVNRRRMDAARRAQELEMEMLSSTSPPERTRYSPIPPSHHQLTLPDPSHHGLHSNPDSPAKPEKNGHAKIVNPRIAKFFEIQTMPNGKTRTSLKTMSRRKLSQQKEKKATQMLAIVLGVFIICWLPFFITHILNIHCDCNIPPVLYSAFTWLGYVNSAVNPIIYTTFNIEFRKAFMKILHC

[8] = target: Beta-2 adrenergic receptor (Rattus norvegicus, UniProt P10608)
Beta-2 adrenergic receptor, sequence (P10608 whole entry): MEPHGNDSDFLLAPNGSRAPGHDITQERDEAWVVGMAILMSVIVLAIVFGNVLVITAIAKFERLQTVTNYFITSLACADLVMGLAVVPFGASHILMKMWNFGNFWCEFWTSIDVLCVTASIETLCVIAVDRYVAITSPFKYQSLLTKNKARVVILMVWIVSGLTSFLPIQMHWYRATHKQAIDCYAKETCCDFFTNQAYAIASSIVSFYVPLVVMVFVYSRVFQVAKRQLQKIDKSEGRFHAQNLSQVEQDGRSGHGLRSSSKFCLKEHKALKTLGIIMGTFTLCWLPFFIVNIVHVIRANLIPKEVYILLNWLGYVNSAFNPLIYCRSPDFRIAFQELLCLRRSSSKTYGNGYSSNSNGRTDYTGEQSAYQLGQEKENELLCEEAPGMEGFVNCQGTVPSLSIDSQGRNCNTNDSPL

[9] = target: T5, 5-hydroxytryptamine receptor 1A (Rattus norvegicus, UniProt P19327)
T5 sequence (P19327 whole entry): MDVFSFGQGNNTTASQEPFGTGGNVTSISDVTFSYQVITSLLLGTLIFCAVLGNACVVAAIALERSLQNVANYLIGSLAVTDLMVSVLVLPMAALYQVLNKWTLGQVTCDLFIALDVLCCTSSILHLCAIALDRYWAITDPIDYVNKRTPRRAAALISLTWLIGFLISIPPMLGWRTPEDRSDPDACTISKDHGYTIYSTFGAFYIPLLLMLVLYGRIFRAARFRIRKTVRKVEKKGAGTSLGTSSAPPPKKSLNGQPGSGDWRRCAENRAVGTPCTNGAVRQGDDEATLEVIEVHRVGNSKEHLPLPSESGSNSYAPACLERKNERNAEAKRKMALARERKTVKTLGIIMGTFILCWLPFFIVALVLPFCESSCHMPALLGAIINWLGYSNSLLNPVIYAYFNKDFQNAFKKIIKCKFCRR

[10] = target: Sodium-dependent serotonin transporter (Rattus norvegicus, UniProt P31652)
Sodium-dependent serotonin transporter, sequence (P31652 whole entry): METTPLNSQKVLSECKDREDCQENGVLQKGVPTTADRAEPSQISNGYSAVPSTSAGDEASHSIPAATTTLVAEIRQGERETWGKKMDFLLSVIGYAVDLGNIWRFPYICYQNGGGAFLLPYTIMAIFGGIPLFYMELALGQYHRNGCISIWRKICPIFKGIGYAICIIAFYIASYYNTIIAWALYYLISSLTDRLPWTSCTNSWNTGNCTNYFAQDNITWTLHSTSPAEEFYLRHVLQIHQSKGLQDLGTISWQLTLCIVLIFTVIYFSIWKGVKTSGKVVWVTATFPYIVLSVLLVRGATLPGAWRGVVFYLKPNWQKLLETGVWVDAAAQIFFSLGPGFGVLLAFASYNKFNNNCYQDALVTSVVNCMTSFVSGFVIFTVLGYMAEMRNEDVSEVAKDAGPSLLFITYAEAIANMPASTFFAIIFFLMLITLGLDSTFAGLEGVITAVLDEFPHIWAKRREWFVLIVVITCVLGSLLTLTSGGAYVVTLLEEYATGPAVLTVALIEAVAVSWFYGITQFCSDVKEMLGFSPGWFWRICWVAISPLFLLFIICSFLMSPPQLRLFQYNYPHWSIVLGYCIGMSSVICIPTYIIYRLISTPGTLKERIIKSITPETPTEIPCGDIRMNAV

## CN(C)CCC=C1c2ccccc2CCc2ccccc21
[1]
  Ki: 8 nM
[2]
  Ki: 69 nM
[3]
  Ki: 5300 nM
Histamine H1 receptor
  Ki: 8.3 nM
[4]
  Ki: 340 nM
D(1A) dopamine receptor
  Ki: 81 nM
[5]
  Ki: 24 nM
[6]
  Ki: 8.9 nM
[7]
  Ki: 11 nM
D(2) dopamine receptor
  Ki: 850 nM
[8]
  Ki: > 10000 nM
[9]
  Ki: > 10000 nM

## CN(CCCN1c2ccccc2CCc2ccccc21)CC(=O)c1ccc(Cl)cc1 [CAS_23047-25-8]
[2]
  Ki: 620 nM
[3]
  Ki: 3300 nM
Histamine H1 receptor
  Ki: 1000 nM
[4]
  Ki: 2100 nM
D(1A) dopamine receptor
  Ki: 500 nM
[10]
  Ki: 880 nM
[5]
  Ki: 2.7 nM
[6]
  Ki: 300 nM
[7]
  Ki: 1200 nM
D(2) dopamine receptor
  Ki: 6700 nM
[8]
  Ki: > 10000 nM
[9]
  Ki: > 10000 nM

## CN(C)CCCC1(c2ccc(F)cc2)OCc2cc(C#N)ccc21 (stereo unspecified) [CITALOPRAM HYDROBROMIDE]
[1]
  Ki: 630 nM
[4]
  Ki: > 10000 nM
D(1A) dopamine receptor
  Ki: > 10000 nM
[6]
  Ki: 5600 nM
D(2) dopamine receptor
  Ki: > 10000 nM
[8]
  Ki: > 10000 nM
[9]
  Ki: > 10000 nM

## COCCCC/C(=N\OCCN)c1ccc(C(F)(F)F)cc1 [(1E)-5-methoxy-1-[4-(trifluoromethyl)phenyl]pentan-1-one O-(2-aminoethyl)oxime]
[1]
  Ki: 6700 nM
[2]
  Ki: 4800 nM
[3]
  Ki: > 10000 nM
Histamine H1 receptor
  Ki: > 10000 nM
[4]
  Ki: 1900 nM
D(1A) dopamine receptor
  Ki: > 10000 nM
[5]
  Ki: 620 nM
[6]
  Ki: > 10000 nM
[7]
  Ki: > 10000 nM
D(2) dopamine receptor
  Ki: > 10000 nM
[8]
  Ki: > 10000 nM
[9]
  Ki: > 10000 nM

## CC(NC(C)(C)C)C(=O)c1cccc(Cl)c1 (stereo unspecified) [BUPROPION HYDROCHLORIDE]
[1]
  Ki: > 10000 nM
[2]
  Ki: > 10000 nM
[3]
  Ki: 570 nM
[4]
  Ki: > 10000 nM
D(1A) dopamine receptor
  Ki: > 10000 nM
[5]
  Ki: 1400 nM
[6]
  Ki: > 10000 nM
D(2) dopamine receptor
  Ki: > 10000 nM
[8]
  Ki: > 10000 nM

## COc1ccc(C(CN(C)C)C2(O)CCCCC2)cc1 (stereo unspecified) [NSC_62923]
[1]
  Ki: > 10000 nM
Histamine H1 receptor
  Ki: > 10000 nM
[4]
  Ki: > 10000 nM
D(1A) dopamine receptor
  Ki: > 10000 nM
[6]
  Ki: > 10000 nM
D(2) dopamine receptor
  Ki: > 10000 nM
[9]
  Ki: > 10000 nM

## Fc1ccc([C@@H]2CCNC[C@H]2COc2ccc3c(c2)OCO3)cc1 [PAROXETINE]
[1]
  Ki: > 10000 nM
[2]
  Ki: > 10000 nM
Histamine H1 receptor
  Ki: > 10000 nM
[4]
  Ki: 8900 nM
D(1A) dopamine receptor
  Ki: > 10000 nM
[6]
  Ki: 210 nM
D(2) dopamine receptor
  Ki: > 10000 nM
[8]
  Ki: > 10000 nM
[9]
  Ki: > 10000 nM

## CCc1nn(CCCN2CCN(c3cccc(Cl)c3)CC2)c(=O)n1CCOc1ccccc1 [2-{3-[4-(3-chlorophenyl)piperazin-1-yl]propyl}-5-ethyl-4-(2-phenoxyethyl)-2,4-dihydro-3H-1,2,4-triazol-3-one]
[2]
  Ki: 42 nM
[3]
  Ki: 470 nM
Histamine H1 receptor
  Ki: 370 nM
[4]
  Ki: 1200 nM
D(1A) dopamine receptor
  Ki: 1500 nM
[5]
  Ki: 110 nM
[6]
  Ki: > 10000 nM
[8]
  Ki: > 10000 nM
[9]
  Ki: 1000 nM

## CN[C@@H]1CC[C@@H](c2ccc(Cl)c(Cl)c2)c2ccccc21 [[4-(3,4-Dichloro-phenyl)-1,2,3,4-tetrahydro-naphthalen-1-yl]-methyl-amine]
[2]
  Ki: 2800 nM
Histamine H1 receptor
  Ki: > 10000 nM
D(1A) dopamine receptor
  Ki: 6300 nM
[6]
  Ki: 1100 nM
D(2) dopamine receptor
  Ki: > 10000 nM
[8]
  Ki: > 10000 nM
[9]
  Ki: > 10000 nM

## CN(C)CCC=C1c2ccccc2CSc2ccccc21 [CAS_897-15-4]
[2]
  Ki: 419 nM
[3]
  Ki: 5180 nM
Histamine H1 receptor
  Ki: 4 nM
[4]
  Ki: 12 nM
[5]
  Ki: 70 nM
[6]
  Ki: 26 nM
[7]
  Ki: 152 nM
[9]
  Ki: 4000 nM

## CNCC[C@@H](Oc1ccc(C(F)(F)F)cc1)c1ccccc1 [Prozac]
Histamine H1 receptor
  Ki: 3200 nM
D(1A) dopamine receptor
  Ki: > 10000 nM
D(2) dopamine receptor
  Ki: > 10000 nM
[8]
  Ki: > 10000 nM
